In patent publication US20240358717A1, “APPLICATION OF B-ECDYSTERONE IN PREPARATION OF MEDICINE FOR URIC ACID-LOWERING AND HYPERURICEMIC KIDNEY INJURY” (Institute of Chinese Materia Medica, China Academy of …, priority 2023, published 2024):

How the values were obtained:
Assay type in all cases: in vivo, SD rats
[1] = system: rats with hyperuricemia; test: Pathological examination of rat kidney tissue (HE staining); details: for pathology of kidney tissues: HE staining; for protective effect on kidney injury combined with hyperuricemia: overall conclusion from hexamine silver staining, biochemical and pathological results
Experimental: (§1) The establishment of the model as well as the experimental grouping and administration were the same as in Example 1. 1.2 Pathological examination of kidney tissue: anesthetize rats, dissect, and remove kidney tissue. The kidney tissues were fixed with 10% neutral formalin. After sufficient fixation, sampling, gradient dehydration, xylene transparency, paraffin embedding, and preparation of 3 μm paraffin sections were performed according to routine procedures. The kidney tissue lesions as well as urate deposition in the kidney tissues were examined by light microscopy using, HE (hematoxylin & eosin) staining and hexamine silver staining, respectively. […] Among them, A in FIG. 1 and FIG. 2 is the control group, B is the model group, C and D are both β-ecdysterone underdose group, E is β-ecdysterone low dose group, F is β-ecdysterone medium dose group, G is β-ecdysterone high dose group, H is β-ecdysterone overdose group, I is allopurinol group, and J is benzbromarone group. The length unit in the lower right corner of the figure is 50 μm.

[2] = system: rats with hyperuricemia; test: Effect on blood uric acid level in rats with hyperuricemia (adenine combined with ethambutol model); details: for Blood uric acid: serum, 16 h fasting after last administration, mean±SD; for Uric acid reduction Percentage: versus model group
Experimental: There were 80 Male SPF grade SD rats, weighing 200-220 g, were purchased from Beijing Vital River Laboratory Animal Technology Co., Ltd., license No. SCXK (Beijing) 2016-0006. The animals were housed in a barrier environment animal laboratory, with automatic temperature control (temperature 20-26° C.), relative humidity 40-70%, and full fresh air. Artificial light was adopted with a 12-hour light-dark cycle. Group experiments were started after 1 day of acclimatization. Animals were fed with standard rat pellet feed, provided by Beijing Keao Xieli Feed Co. Ltd., with purified water.
The rats were randomly divided into 10 groups of 8 rats each:
(1) negative control group (control group); (2) model group; (3) β-ecdysterone underdose group-1, 6 mg/kg; (4) β-ecdysterone underdose group-2, 12 mg/kg; (5) β-ecdysterone low dose group 25 mg/kg; (6) β-ecdysterone medium dose group 50 mg/kg; (7) β-ecdysterone high dose group 100 mg/kg; (8) β-ecdysterone overdose group 200 mg/kg; (9) allopurinol group 25 mg/kg; (10) benzbromarone group 25 mg/kg.
1.2 Establishment of Adenine Combined with Ethambutol-Induced Hyperuricemia Combined with Kidney Injury Model in Rats
Adenine was purchased from Sigma-Aldrich (USA), and 0.5% CMC-Na (sodium carboxymethyl cellulose) solution was used to formulate a suspension at a concentration of 20 mg/mL, ready-to-use, with an administration volume of 5 mL/kg and a dosage of 100 mg/kg. Ethambutol hydrochloride tablets were purchased from Chengdu Jinhua Pharmaceutical Co., Ltd, and 0.5% CMC-Na solution was used to formulate a suspension at a concentration of 50 mg/ml, ready-to-use, with an administration volume of 5 mL/kg and a dosage of 250 mg/kg. The modeling drug adenine 100 mg/kg and ethambutol 250 mg/kg were administered by gavage in the model group and the CQ group at each dose, from day 1, and both were administered once a day for a total of 7 days, to prepare a hyperuricemia rat model. An equal amount of 0.5% CMC-Na solution was administered by gavage in the control group at the relative time.
Observation and detection indicators: fasting for 16 hours after the last administration, blood was collected from the abdominal aorta of rats in each group, centrifuged at 3500 rpm for 15 minutes after standing, separated and collected serum, and the content of uric acid in the serum was measured using an Automatic Chemical Analysis.
Statistical methods: data were expressed as mean±standard deviation and analyzed by one-way ANOVA. Each administration group was compared with the model group separately.

[3] = system: rats with hyperuricemia; test: Kidney function biochemical indicators (serum BUN and SCr) in rats with hyperuricemia; details: for BUN / SCr: serum, mean±SD
From the text: The establishment of the model as well as the experimental grouping and administration were the same as in Example 1.
1.1 Kidney function biochemical indicators detection: the method of blood sampling and serum collection was the same as in Example 1, and an Automatic Chemical Analysis was used to detect the content of serum creatinine (SCr) by using the creatine oxidase method, and to detect the content of blood urea nitrogen (BUN) by using the urease method and the kinetic method. the effect of β-ecdysterone on the level of blood BUN and SCr of rats with hyperuricemia is shown in Table 2.

[4] = system: rats with hyperuricemia; test: Urate deposition in rat kidney tissues (hexamine silver staining)
Experimental: as §1

With `Oc1ncnc2[nH]ncc12` [Allopurinol, allopurinol, reference compound] the “pathology of kidney tissues” value ([1]; 25 mg/kg) was “severe renal tubules dilatation, tubular wall thinning, eosinophilic degeneration, and inflammatory cell infiltration were observed”, the “protective effect on kidney injury combined with hyperuricemia” value (“protective effect” for short) [1] was “did not have a significant protective effect” and the Blood uric acid ([2]; 25 mg/kg) was 109.11 ± 21.66 µmol/L. For the same compound, the “Uric acid reduction Percentage” value ([2]; 25 mg/kg) was 48.90%, the BUN ([3]; 25 mg/kg) was 12.17 ± 3.03 mmol/L and the SCr ([3]; 25 mg/kg) was 48.16 ± 6.95 µmol/L. The “serum BUN level compared with the model group” value ([3]; positive drugs, 25 mg/kg) was “did not show significant differences”, the “serum SCr level compared with the model group” value ([3]; positive drugs, 25 mg/kg) was “did not show significant differences” and the “urate crystals deposition in kidney tissue” value (“urate crystals deposition” below) ([4]; positive drugs, 25 mg/kg) was “significantly reduced”.

`CCc1oc2ccccc2c1C(=O)c1cc(Br)c(O)c(Br)c1` [Benzbromarone, benzbromarone, reference compound] was tested, and the “pathology of kidney tissues” value ([1]; 25 mg/kg) was “severe renal tubules dilatation, tubular wall thinning, eosinophilic degeneration, and inflammatory cell infiltration were observed”, the “protective effect” value [1] was “did not have a significant protective effect” and the Blood uric acid ([2]; 25 mg/kg) was 112.53 ± 30.78 µmol/L. The “Uric acid reduction Percentage” value ([2]; 25 mg/kg) was 44.37%, the BUN ([3]; 25 mg/kg) was 10.91 ± 2.66 mmol/L and the SCr ([3]; 25 mg/kg) was 50.64 ± 7.92 µmol/L. The “serum BUN level compared with the model group” value ([3]; positive drugs, 25 mg/kg) was “did not show significant differences”, the “serum SCr level compared with the model group” value ([3]; positive drugs, 25 mg/kg) was “did not show significant differences” and the “urate crystals deposition” value ([4]; positive drugs, 25 mg/kg) was “significantly reduced”.

In the case of `CC(C)(O)CC[C@@H](O)[C@](C)(O)[C@H]1CC[C@@]2(O)C3=CC(=O)[C@@H]4C[C@@H](O)[C@@H](O)C[C@]4(C)[C@H]3CC[C@]12C` [β-ecdysterone], the “pathology of kidney tissues” value ([1]; 25 mg/kg) is reported as “tubular dilatation was reduced compared with that of the model group”, the “pathology of kidney tissues” value ([1]; high dose group 100 mg/kg) is reported as “tubular dilatation was reduced compared with that of the model group” and the “pathology of kidney tissues” value ([1]; medium dose group 50 mg/kg) is reported as “tubular dilatation was significantly reduced”. For the same compound, the “protective effect” value [1] was “significant protective effect”, the “pathology of kidney tissues” value ([1]; overdose group 200 mg/kg) was “mild tubular dilatation and tubular epithelial cell detachment, and tubular wall thinning in some of the tubules were observed locally” and the “pathology of kidney tissues” value ([1]; underdose group (6 and 12 mg/kg)) was “severe tubular expansion, epithelial cell detachment, eosinophilic degeneration and inflammatory cell infiltration could still be observed”. The Blood uric acid ([2]; 6 mg/kg) was 154.76 ± 38.71 µmol/L, the “Uric acid reduction Percentage” value ([2]; 6 mg/kg) was 4.98% and the Blood uric acid ([2]; 12 mg/kg) was 147.55 ± 39.28 µmol/L. The “Uric acid reduction Percentage” value ([2]; 12 mg/kg) was 10.10%, the Blood uric acid ([2]; 25 mg/kg) was 117.91 ± 43.74 µmol/L and the “Uric acid reduction Percentage” value ([2]; 25 mg/kg) was 37.78%. For the same compound, the Blood uric acid ([2]; 50 mg/kg) was 110.83 ± 25.02 µmol/L, the “Uric acid reduction Percentage” value ([2]; 50 mg/kg) was 46.58% and the Blood uric acid ([2]; 100 mg/kg) was 120.19 ± 68.99 µmol/L. The “Uric acid reduction Percentage” value ([2]; 100 mg/kg) was 35.17%, the Blood uric acid ([2]; 200 mg/kg) was 127.56 ± 61.77 µmol/L and the “Uric acid reduction Percentage” value ([2]; 200 mg/kg) was 27.36%. The “blood uric acid level compared to the model group” value ([2]; dose too low (underdose groups)) was “not significantly reduced”, the BUN ([3]; 6 mg/kg) was 11.34 ± 4.11 mmol/L and the SCr ([3]; 6 mg/kg) was 51.72 ± 7.35 µmol/L. For the same compound, the BUN ([3]; 12 mg/kg) was 9.81 ± 3.76 mmol/L, the SCr ([3]; 12 mg/kg) was 47.56 ± 6.11 µmol/L and the BUN ([3]; 25 mg/kg) was 7.36 ± 1.71 mmol/L. For the same compound, the SCr ([3]; 25 mg/kg) was 40.73 ± 5.79 µmol/L, the BUN ([3]; 50 mg/kg) was 7.19 ± 1.00 mmol/L and the SCr ([3]; 50 mg/kg) was 41.30 ± 4.08 µmol/L. For the same compound, the BUN ([3]; 100 mg/kg) was 7.84 ± 2.04 mmol/L, the SCr ([3]; 100 mg/kg) was 42.15 ± 5.01 µmol/L and the BUN ([3]; 200 mg/kg) was 8.04 ± 3.96 mmol/L. For the same compound, the SCr ([3]; 200 mg/kg) was 44.30 ± 5.21 µmol/L, the “serum BUN level compared with the model group” value ([3]; after administration (p<0.01)) was “significantly reduced” and the “serum SCr level compared with the model group” value ([3]; after administration (p<0.01)) was “significantly reduced”. The “serum BUN level compared with the model group” value ([3]; dose too high) was “only a slight decreasing trend”, the “serum SCr level compared with the model group” value ([3]; dose too high) was “only a slight decreasing trend” and the “serum BUN level compared with the model group” value ([3]; dose too low) was “no significant difference”. For the same compound, the “serum SCr level compared with the model group” value ([3]; dose too low) was “no significant difference”, the “urate crystals deposition” value ([4]; 50 mg/kg group) was “most obvious effect” and the “urate crystals deposition” value ([4]; after administration, versus model group) was “significantly reduced”. For the same compound, the “urate crystals deposition” value ([4]; lower dose) was “no significant reduction”.
